Laboratory results taken from patent publication US20160136108A1, “HYDROXYTYROSOL COMPOSITIONS FOR TREATMENT OF CARTILAGE INJURIES IN JOINTS” (DSM IP ASSETS B.V., priority 2007, published 2016).

How the values were obtained:
Assay type in all cases: cell-based
human aggrecan = experiment: Anabolic gene expression by quantitative real-time PCR in normal human primary chondrocytes: aggrecan
Method: (§1) […] These primary chondrocytes were passaged in vitro not more than 4 times, before being used for experiments. Cells were cultured in chondrocyte differentiation medium (Cambrex, #CC-3225) without or with substances for 4 hours. Total RNA was extracted from cultured cells and reverse-transcribed as described by Richard et al. Mol. Nutr. Food Res. 49, 431-442, 2005. Expression levels of distinct genes were determined by quantitative real-time PCR as detailed in Richard et al. Mol. Nutr. Food Res. 49, 431-442, 2005.

human COL2A1 = experiment: Anabolic gene expression by quantitative real-time PCR in normal human primary chondrocytes: COL2A1
Method: as §1

human SOX-5 = experiment: Anabolic gene expression by quantitative real-time PCR in normal human primary chondrocytes: SOX-5; details: normal human primary chondrocytes (HNAC-kn); 4 hours
Method: as §1

human SOX-6 = experiment: Anabolic gene expression by quantitative real-time PCR in normal human primary chondrocytes: SOX-6; details: normal human primary chondrocytes (HNAC-kn); 4 hours
Method: as §1

Human IL-R antagonist = experiment: Anti-catabolic gene expression by quantitative real-time PCR in normal human primary chondrocytes: IL-R antagonist; details: normal human primary chondrocytes (HNAC-kn); 4 hours
Method: as §1

[1] = 12.5 microM OH-Tyrosol, normal human primary chondrocytes (HNAC-kn), 4 hours
[2] = in words, normal human primary chondrocytes

OCCc1ccc(O)c(O)c1 [OH-Tyrosol, 4-(2-hydroxylethyl)-1,2-benzenediol]
level of gene expression, human aggrecan (human aggrecan; [1]): 125 % of control-treated cells | effect of compounds on gene expression, human aggrecan (human aggrecan; [2]): substantially increased | level of gene expression, human COL2A1 (human COL2A1; [1]): 247 % of control-treated cells | effect of compounds on gene expression, human COL2A1 (collagen II) (human COL2A1; [2]): substantially increased | level of gene expression, human SOX-5 (human SOX-5): 130 % of control-treated cells | level of gene expression, human SOX-6 (human SOX-6): 127 % of control-treated cells | level of gene expression, Human IL-R antagonist (Human IL-R antagonist): 113 % of control-treated cells
